A word on the IC50: it is the concentration at which inhibition is half-maximal.

Data set [1] deals with T1, Androgen receptor (Rattus norvegicus, UniProt P15207).
T1 sequence (P15207 whole entry): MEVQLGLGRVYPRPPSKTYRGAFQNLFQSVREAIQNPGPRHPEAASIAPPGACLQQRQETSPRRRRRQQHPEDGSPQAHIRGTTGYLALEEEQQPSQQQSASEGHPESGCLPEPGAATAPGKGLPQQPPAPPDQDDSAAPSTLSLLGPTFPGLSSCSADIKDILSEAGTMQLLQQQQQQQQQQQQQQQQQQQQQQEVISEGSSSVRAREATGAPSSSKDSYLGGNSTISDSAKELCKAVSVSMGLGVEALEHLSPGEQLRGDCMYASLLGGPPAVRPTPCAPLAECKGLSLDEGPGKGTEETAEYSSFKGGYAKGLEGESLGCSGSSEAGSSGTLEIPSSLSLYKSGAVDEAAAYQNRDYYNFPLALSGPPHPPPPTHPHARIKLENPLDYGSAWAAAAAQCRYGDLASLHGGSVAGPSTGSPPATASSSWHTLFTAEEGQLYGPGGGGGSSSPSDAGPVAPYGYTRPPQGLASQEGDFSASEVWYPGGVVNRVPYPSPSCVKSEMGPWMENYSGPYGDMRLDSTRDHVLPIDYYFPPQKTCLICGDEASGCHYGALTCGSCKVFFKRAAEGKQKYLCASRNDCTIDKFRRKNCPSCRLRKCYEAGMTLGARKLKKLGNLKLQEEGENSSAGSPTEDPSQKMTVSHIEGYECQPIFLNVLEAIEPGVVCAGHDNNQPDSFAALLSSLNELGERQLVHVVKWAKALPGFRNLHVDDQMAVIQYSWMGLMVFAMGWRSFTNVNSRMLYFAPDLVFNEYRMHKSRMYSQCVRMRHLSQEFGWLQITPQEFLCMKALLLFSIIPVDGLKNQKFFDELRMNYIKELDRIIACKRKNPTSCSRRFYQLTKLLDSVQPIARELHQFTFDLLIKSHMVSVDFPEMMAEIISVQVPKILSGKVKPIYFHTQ
In words: (§1) Displacement of [3H]-MIB from rat prostate cytosolic androgen receptor by liquid scintillation counting method. Background: In a radioligand displacement assay an active substance lowers the binding of a labelled ligand.

Data set [2] deals with T2, 3-oxo-5-alpha-steroid 4-dehydrogenase 1 (Rattus norvegicus, UniProt P24008).
T2 sequence (P24008 whole entry): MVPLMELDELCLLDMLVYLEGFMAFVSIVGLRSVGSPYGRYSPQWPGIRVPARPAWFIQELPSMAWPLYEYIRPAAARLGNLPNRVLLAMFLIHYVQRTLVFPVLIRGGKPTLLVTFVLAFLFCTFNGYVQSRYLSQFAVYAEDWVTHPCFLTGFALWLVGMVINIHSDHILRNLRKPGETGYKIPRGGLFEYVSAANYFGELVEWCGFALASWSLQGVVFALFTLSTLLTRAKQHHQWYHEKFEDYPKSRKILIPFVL
Put plainly: Inhibition of rat liver microsomal 5-alpha reductase 1 assessed as decrease in conversion of testosterone to dihydrotestosterone by chromatographic method. A general note: Liver microsomes are a subcellular fraction often used to study metabolism.

In data set [3] the target is T3, 3-oxo-5-alpha-steroid 4-dehydrogenase 2 (Homo sapiens, UniProt P31213).
T3 sequence (P31213 whole entry): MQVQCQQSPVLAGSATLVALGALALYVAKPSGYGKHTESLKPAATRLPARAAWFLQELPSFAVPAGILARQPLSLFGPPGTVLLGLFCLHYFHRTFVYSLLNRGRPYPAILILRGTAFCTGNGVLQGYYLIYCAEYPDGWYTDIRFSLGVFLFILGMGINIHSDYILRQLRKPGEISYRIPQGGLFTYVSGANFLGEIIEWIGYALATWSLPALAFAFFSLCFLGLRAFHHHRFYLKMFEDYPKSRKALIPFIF
Put plainly: Inhibition of human prostate 5-alpha reductase 2 assessed as decrease in conversion of testosterone to dihydrotestosterone by chromatographic method.

Data set [4] addresses T4, Androgen receptor (Rattus norvegicus) (UniProt P15207).
T4 sequence (whole entry): T1 sequence (P15207 whole entry)
The description is as §1.

Data set [5] concerns PC-3. In words: Cytotoxicity against human PC3 cells assessed as growth inhibition at 50 uM after 48 hrs by sulforhodamine B assay relative to control. The following applies: for inhibition of growth at 50 µM: PC-3, 48 h, read-out: GI. The format is functional. (In general: In SRB staining, fixed cells bind dye roughly in proportion to their protein.)
Data set [6] has as its system MCF7. In words: Cytotoxicity against human MCF7 cells assessed as growth inhibition at 50 uM after 48 hrs by sulforhodamine B assay relative to control. The format is functional. The following applies: for inhibition of growth at 50 µM: MCF7, 48 h, read-out: GI.
In data set [7] the test system is SK-LU-1. In words: Cytotoxicity against human SKLU1 cells assessed as growth inhibition at 50 uM after 48 hrs by sulforhodamine B assay relative to control. The format is functional. To be noted: for inhibition of growth at 50 µM: SK-LU-1, 48 h, read-out: GI.
Data set [8] deals with Syrian golden hamster. In words: Hyperplasia activity in castrated golden hamster assessed as prostate weight at 2 mg/kg, sc co-administered with testosterone for 6 days (reference value: 98 +/- 12.6 mg). The format is functional, Mesocricetus auratus.
The test system of data set [9] is Syrian golden hamster. In words: Hyperplasia activity in castrated golden hamster assessed as seminal vesicles weight at 2 mg/kg, sc co-administered with testosterone for 6 days (reference value: 200.6 +/- 55 mg). In kind it is functional, Mesocricetus auratus.
Data set [10] concerns Syrian golden hamster. In words: Hyperplasia activity in castrated golden hamster assessed as diameter of pigmented spot of flank organs at 2 mg/kg, sc administered for 6 days (reference value: 5.65 +/- 1.12 mm). The format is functional, Mesocricetus auratus.
In data set [11] the test system is Syrian golden hamster. In words: Toxicity in castrated golden hamster at 2 mg/kg, sc co-administered with testosterone for 6 days. The following applies: in vivo, 144 h. The format is organism-based, Mesocricetus auratus.

The source made the active and inactive calls. The calls are words filed in the database; no cut-off is given here.

In data set [1], `C[C@@H]1CC2=CC(=O)CC[C@@H]2[C@H]2CC[C@@]3(C)[C@@H](CC[C@]3(C)O)[C@@H]21` [MIBOLERONE] showed an IC50 of 1 nM.
As for `CC(=O)O[C@H]1CC[C@@]2(C)C(=CC[C@@H]3[C@@H]2CC[C@]2(C)C(C(=O)Cn4ccnc4)=CC[C@@H]32)C1`, the IC50 result in [2] is “Not Active”; in [3] (read-out: IC50) it was 122 µM. The inhibition result in data set [4] was “inactive”. Further, the inhibition of growth at 50 µM in data set [5] is 79.6%; in data set [6], 77.9%; in data set [7], 96.7%. Moreover, the Activity in data set [8] is recorded as 85.8 mg; in [9], 200.5 mg; in data set [10], 3.06 mm; in data set [11], “Non-Toxic”.
Turning to `CCC(=O)O[C@H]1CC[C@@]2(C)C(=CC[C@@H]3[C@@H]2CC[C@]2(C)C(C(=O)Cn4ccnc4)=CC[C@@H]32)C1`, the IC50 entry in data set [2] and in [3] was “Not Active” each time. Further, the inhibition entry in data set [4] is “inactive”. In addition, the inhibition of growth at 50 µM in [5] was 22.6%; in data set [6], 0%; in [7], 16.8%. Also, the Activity in data set [8] is 88.4 mg; in data set [9], 231.7 mg; in [10], 1.8 mm; in [11], “Non-Toxic”.
Consider `C[C@]12CC[C@H](OC(=O)C3CCCCC3)CC1=CC[C@@H]1[C@@H]2CC[C@]2(C)C(C(=O)Cn3ccnc3)=CC[C@@H]12`, for which the IC50 entry in data set [2] was “Not Active”; in data set [3] (read-out: IC50), 0.0293 µM. Also, the inhibition entry in data set [4] was “inactive”. The “growth inhibition (GI)” value in [5], in data set [6] and in data set [7] was “inactive” in each case. Further, the Activity in data set [8] was 54.3 mg; in data set [9], 143.68 mg; in data set [10], 2.4 mm; in data set [11], “Non-Toxic”.
In the case of `CCCCC(=O)O[C@H]1CC[C@@]2(C)C(=CC[C@@H]3[C@@H]2CC[C@]2(C)C(C(=O)Cn4ccnc4)=CC[C@@H]32)C1`, the IC50 entry in data set [2] and in data set [3] was “Not Active” throughout. Also, in [4], the inhibition result is “inactive”. The inhibition of growth at 50 µM came to 23.7% in data set [5], 51.3% in [6] and 39.2% in data set [7]. Further, the Activity in data set [8] is 80.93 mg; in [9], 198.33 mg; in [10], 2.94 mm; in data set [11], “Non-Toxic”.
Take `C[C@]12CC[C@H](OC(=O)C3CCCCCC3)CC1=CC[C@@H]1[C@@H]2CC[C@]2(C)C(C(=O)Cn3ccnc3)=CC[C@@H]12`: the IC50 entry in data set [2] and in [3] was “Not Active” in each case. In addition, the inhibition entry in [4] is “inactive”. Besides, the “growth inhibition (GI)” value in [5], in [6] and in data set [7] was “inactive” throughout. For the same compound, the Activity was 70.8 mg in [8], 143.6 mg in [9], 2.8 mm in data set [10] and “Non-Toxic” in data set [11].
